Patent US20090258883A1, “1H-Indole-Pyridinecarboxamide and 1H-Indole-Piperidinecarboxamide Compounds” (LES LABORATOIRES SERVIER, priority 2005, published 2009)
Marks after values point to notes of the source that are not given here.

Legend:
[1] = tested on: tyrosine hydroxylase (TH) protein; assay: Induction of tyrosine hydroxylase (TH) in LC, SN and VTA of the mouse brain; type: in vivo, Balb/C mouse; settings: for amount of TH in LC section 1: LC section 1 (posterior-to-anterior); for amount of TH in LC section 1 / amount of TH, LC, total: i.p. 20 mg/kg; for amount of TH in LC section 1 / amount of TH in LC section 2 / amount of TH in LC section 3 / amount of TH in LC section 4 / amount of TH in LC section 5 / amount of TH in LC section 6 / amount of TH in LC section 7 / amount of TH in LC section 8 / amount of TH in LC section 9 / amount of TH in LC section 10 / amount of TH in LC section 11 / amount of TH, LC, total: three days after single injection; for amount of TH in LC section 1 / amount of TH in LC section 2 / amount of TH in LC section 3 / amount of TH in LC section 4 / amount of TH in LC section 5 / amount of TH in LC section 6 / amount of TH in LC section 7 / amount of TH in LC section 8 / amount of TH in LC section 9 / amount of TH in LC section 10 / amount of TH in LC section 11 / amount of TH, LC, total / TH induction in the SN / TH induction in the VTA: relative to mean value of control group; for amount of TH in LC section 2: LC section 2, i.p. 20 mg/kg; for amount of TH in LC section 3: LC section 3, i.p. 20 mg/kg; for amount of TH in LC section 4: LC section 4, i.p. 20 mg/kg; for amount of TH in LC section 5: LC section 5, i.p. 20 mg/kg; for amount of TH in LC section 6: LC section 6, i.p. 20 mg/kg; for amount of TH in LC section 7: LC section 7, i.p. 20 mg/kg; for amount of TH in LC section 8: LC section 8, i.p. 20 mg/kg; for amount of TH in LC section 9: LC section 9, i.p. 20 mg/kg; for amount of TH in LC section 10: LC section 10, i.p. 20 mg/kg; for amount of TH in LC section 11: LC section 11, i.p. 20 mg/kg; for TH induction in the SN: substantia nigra; for TH induction in the SN / TH induction in the VTA: single i.p. injection; for TH induction in the VTA: ventral tegmental area
From the text: A search is made among the compounds for those which are capable of bringing about an increase in the tyrosine hydroxylase (TH) protein in the locus coeruleus (LC), substantia nigra (SN) and ventral tegmental area (VTA) of the brain of the Balb/C mouse. The animals used are consanguinal male mice of the pure Balb/C strain (Charles River Laboratories) aged 6 weeks at the time of treatment.
The mice are given a single injection, by the intraperitoneal route, of the compound under test, dissolved in 0.04M HCl solution (corresponding control: 0.04M HCl), if the compound is sufficiently soluble, or in olive oil 90%/DMSO 10% (corresponding control: olive oil 90%/DMSO 10%) for compounds that are insoluble in an aqueous medium. The volume injected is 100 μl. The test groups comprise 10 animals.
Three days after the injection of each compound, all the animals are sacrificed by decapitation. The brains are removed and then frozen in an isopentane solution at −30° C. for 45 seconds and subsequently stored at −80° C.
Serial coronal sections 20 microns thick are then taken using a cryomicrotome. Each structure of interest is then sampled along the posterior-anterior axis of the brain by taking sections at 80-micron spacings in the case of the LC and at 80- or 160-micron spacings in the case of the VTA and SN. The limits of those structures are those described in the atlas of Franklin and Paxinos. The total proteins of each of those sections are transferred by direct collection of the sections to a nitrocellulose filter (Millipore). The amounts of TH present in each sample are measured by immunochemistry, fluorimetric detection and image analysis.

muscarinic (M) receptors = assay: Affinity for receptors, displacement of labelled specific ligand: muscarinic; type: binding; settings: concentration 10^−5 M
Description: (§1) The affinity for receptors is determined according to customary methods of relations between the specific ligand and the receptor, which may be of animal origin or a human recombinant. The affinity was determined by the method of displacement of the labelled specific ligand by the compound under test and expressed by the dissociation constant KI. The receptor affinity was accordingly studied for 28 conventional receptors.

[2] = tested on: sigma (σ) receptors (ligand: haloperidol); assay: Affinity for receptors, displacement of labelled specific ligand: sigma; type: binding
Description: as §1

[3] = Predicted metabolic stability, mouse hepatic microsomes; type: in vitro ADME; settings: 10^−7 M, mouse hepatic microsomes 0.33 mg of prot/ml, NADPH
Description: (§2) The predicted metabolic stability is tested by incubation of the compounds at a concentration of 10^−7M in the presence of mouse, rat or human hepatic microsomes (0.33 mg of prot/ml). After addition of NADPH (nicotinamide adenine dinucleotide phosphate, reduced form), samples are taken at 0, 5, 15, 30 and 60 minutes. The enzymatic reaction is stopped using methanol (V/V). The protein is precipitated by centrifugation and the supernatant is analysed by LC-MS-MS.

[4] = Predicted metabolic stability, human hepatic microsomes; type: in vitro ADME; settings: 10^−7 M, human hepatic microsomes 0.33 mg of prot/ml, NADPH
Description: as §2

[5] = biological target: 5HT receptors (type 5HT2A) (Homo sapiens, UniProt P28223); assay: Affinity for receptors, displacement of labelled specific ligand: 5HT2A; type: binding; settings: for inhibition at 10 µM: concentration 10^−5 M; for inhibition at 0.1 µM: concentration 10^−7 M
5HT receptors (type 5HT2A), sequence (P28223 whole entry): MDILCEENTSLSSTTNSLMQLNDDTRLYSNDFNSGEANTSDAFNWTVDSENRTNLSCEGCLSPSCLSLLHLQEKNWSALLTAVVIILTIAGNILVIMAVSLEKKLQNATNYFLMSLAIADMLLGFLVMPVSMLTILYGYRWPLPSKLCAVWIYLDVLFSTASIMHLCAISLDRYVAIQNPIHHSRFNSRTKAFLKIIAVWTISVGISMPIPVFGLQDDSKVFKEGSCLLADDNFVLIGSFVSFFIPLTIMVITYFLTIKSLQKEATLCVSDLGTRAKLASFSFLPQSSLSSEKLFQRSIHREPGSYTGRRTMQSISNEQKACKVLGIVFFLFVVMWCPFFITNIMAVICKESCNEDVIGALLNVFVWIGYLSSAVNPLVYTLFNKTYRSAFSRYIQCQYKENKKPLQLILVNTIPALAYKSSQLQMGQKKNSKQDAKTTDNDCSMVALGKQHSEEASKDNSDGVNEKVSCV

[6] = biological target: dopaminergic receptors (type D1) (Homo sapiens, UniProt P21728); assay: Affinity for receptors, displacement of labelled specific ligand: D1; type: binding; settings: for inhibition at 10 µM: concentration 10^−5 M; for inhibition at 0.1 µM: concentration 10^−7 M
dopaminergic receptors (type D1), sequence (P21728 whole entry): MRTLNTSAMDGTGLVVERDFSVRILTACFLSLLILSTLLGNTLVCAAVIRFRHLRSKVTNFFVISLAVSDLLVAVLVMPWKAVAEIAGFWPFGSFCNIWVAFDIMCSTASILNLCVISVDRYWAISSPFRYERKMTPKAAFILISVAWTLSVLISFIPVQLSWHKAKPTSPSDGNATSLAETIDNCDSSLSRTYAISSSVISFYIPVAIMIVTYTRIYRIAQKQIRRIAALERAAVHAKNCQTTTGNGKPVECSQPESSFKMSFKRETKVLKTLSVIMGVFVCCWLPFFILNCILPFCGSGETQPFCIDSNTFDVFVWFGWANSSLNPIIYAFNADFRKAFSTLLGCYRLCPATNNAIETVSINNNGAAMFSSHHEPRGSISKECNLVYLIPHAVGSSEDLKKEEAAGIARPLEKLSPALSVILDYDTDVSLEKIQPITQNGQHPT

[7] = biological target: dopaminergic receptors (type D2) (Homo sapiens, UniProt P14416); assay: Affinity for receptors, displacement of labelled specific ligand: D2; type: binding; settings: for inhibition at 10 µM: concentration 10^−5 M; for inhibition at 0.1 µM: concentration 10^−7 M
dopaminergic receptors (type D2), sequence (P14416 whole entry): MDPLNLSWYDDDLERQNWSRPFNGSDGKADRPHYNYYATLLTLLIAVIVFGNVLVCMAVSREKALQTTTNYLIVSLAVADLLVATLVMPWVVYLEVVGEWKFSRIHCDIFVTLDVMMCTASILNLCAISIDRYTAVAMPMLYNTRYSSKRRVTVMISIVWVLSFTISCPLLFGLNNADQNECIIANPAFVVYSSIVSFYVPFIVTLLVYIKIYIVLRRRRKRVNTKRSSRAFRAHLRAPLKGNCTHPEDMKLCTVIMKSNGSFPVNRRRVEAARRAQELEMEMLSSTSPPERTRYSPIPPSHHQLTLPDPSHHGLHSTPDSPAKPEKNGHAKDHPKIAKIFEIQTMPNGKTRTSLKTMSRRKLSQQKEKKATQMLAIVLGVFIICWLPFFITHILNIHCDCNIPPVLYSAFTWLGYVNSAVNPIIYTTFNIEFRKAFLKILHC

Compound | amount of TH in LC section 1 [1] | amount of TH in LC section 2 [1] [%] | amount of TH in LC section 3 [1] | amount of TH in LC section 4 [1] [%] | amount of TH in LC section 5 [1] | amount of TH in LC section 6 [1] | amount of TH in LC section 7 [1] | amount of TH in LC section 8 [1] [%] | amount of TH in LC section 9 [1] | amount of TH in LC section 10 [1] | amount of TH in LC section 11 [1] | amount of TH, LC, total [1] | % inhibition M (muscarinic (M) receptors) [%] | % inhibition σ ([2]; concentration 10^−5 M) [%] | % inhibition σ ([2]; concentration 10^−7 M) [%] | inhibition at 10 µM [5] [%] | inhibition at 0.1 µM [5] [%] | inhibition at 10 µM [6] [%] | inhibition at 0.1 µM [6] [%] | inhibition at 10 µM [7] [%] | also measured
O=C(Nn1ccc2ccccc21)C1CCCN(CCN2CCN(CCO)CC2)C1 (stereo not drawn) [Example 26, 1-{2-[4-(2-Hydroxyethyl)-1-piperazinyl]ethyl}-N-(1H-indol-1-yl)-3-piperidinecarboxamide] | 152* % | 98 | 136** % | 107 | 154** % | 133* % | 127* % | 96 | 132% | 110% | 89% | 121** % | – | – | – | – | – | – | – | – | –
CN1CCN(CCN2CCCC(C(=O)Nn3ccc4ccccc43)C2)CC1 (stereo not drawn) [Example 25, N-(1H-indol-1-yl)-1-[2-(4-methyl-1-piperazinyl)ethyl]-3-piperidine-carboxamide] | – | – | – | – | – | – | – | – | – | – | – | – | 27 | 100 | 17 | 14 | 12 | < 10 | < 10 | < 10 | % metabolic stability predicted using hepatic microsomes, Mouse [3]: 85%; % metabolic stability predicted using hepatic microsomes, Human [4]: 63%; inhibition at 0.1 µM [7]: < 10%
CN(C)CCN1CCCC(C(=O)Nn2ccc3ccccc32)C1 (stereo not drawn) [Example 22, 1-[2-(Dimethylamino)ethyl]-N-(1H-indol-1-yl)-3-piperidinecarboxamide] | 79% | 101 | 112% | 98 | 108% | 113% | 146** % | 120 | 135* % | 179** % | 145* % | 119** % | – | – | – | – | – | – | – | – | –
CN1CCC=C(C(=O)NN2CCc3ccccc32)C1 [Example 15, N-(2,3-dihydro-1H-indol-1-yl)-1-methyl-1,2,5,6-tetrahydropyridine-3-carboxamide] | – | – | – | – | – | – | – | – | – | – | – | – | – | – | – | – | – | – | – | – | TH induction in the SN [1]: 91%; TH induction in the VTA [1]: 88* %
C=CCN1CCCC(C(=O)Nn2ccc3cc(Cl)ccc32)C1 (stereo not drawn) [Example 12, 1-Allyl-N-(5-chloro-1H-indol-1-yl)piperidine-3-carboxamide] | 57% | 70 | 80% | 110 | 114% | 92% | 95% | 82 | 98% | 94% | 26% | 90% | 51 | 85 | 18 | < 10 | < 10 | < 10 | < 10 | < 10 | TH induction in the LC, in words ([1]; LC): without increasing expression of the protein; TH induction in the SN, in words ([1]; SN): induce TH in the SN; TH induction in the VTA, in words ([1]; VTA): without increasing expression of the protein; TH induction in the SN [1]: 122* %; TH induction in the VTA [1]: 95%; inhibition at 0.1 µM [7]: < 10%
